The supplement of paper PMC9262897, “Low-cost anti-mycobacterial drug discovery using engineered E. coli” (Nature Communications, 2022)

Experiments:
∆yeeO = assay: growth (OD600 after 24 h); higher = more growth
Description: (§1)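 E. coli BW25113 ΔaraC (Efflux+) or efflux-pump deletion strains (ΔtolC ΔentC, ΔemrE, ΔmdtI, ΔyeeO, ΔmdtK, ΔmdtM) diluted 1:100 in M9-based medium with a drug dilution series. Growth is read as OD600 after 24 h; 3 biological replicates.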

Efflux+ = assay: growth (OD600 after 24 h); higher = more growth
Description: as §1

∆emrE = assay: growth (OD600 after 24 h); higher = more growth
Description: as §1

∆mdtM = assay: growth (OD600 after 24 h); higher = more growth
Description: as §1

∆mdtI = assay: growth (OD600 after 24 h); higher = more growth
Description: as §1

∆tolC ∆entC = assay: growth (OD600 after 24 h); higher = more growth
Description: as §1

∆mdtK = assay: growth (OD600 after 24 h); higher = more growth
Description: as §1

E. coli TESEC Mtb Alr = assay: growth (OD600 after 10 h, mean); higher = more growth;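 further: E. coli lacking its native Alr, complemented by codon-optimized Mtb Alr under a feedback-controlled arabinose-inducible plasmid circuit, grown in defined medium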
Description: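 TESEC Mtb Alr E. coli grown in a two-dimensional dilution series of drug (µM) and arabinose (12 to 1e8 nM). Growth is read as OD600 after 10 h; values are means of 3 biological replicates.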

CCOC(=O)[C@H](CCc1ccccc1)N[C@H]1CCc2ccccc2N(CC(=O)O)C1=O [Benazepril]
growth
Details | Efflux+ | ∆emrE | ∆mdtI | ∆mdtK | ∆mdtM | ∆tolC ∆entC | ∆yeeO
drug 62.5 µM | 1.02 | 1.18 | 0.992 | 0.937 | 0.822 | 0.756 | 0.887
drug 125 µM | 0.974 | 1.16 | 0.978 | 1.04 | 0.832 | 0.791 | 0.894
drug 250 µM | 0.962 | 1.09 | 0.979 | 1 | 0.807 | 0.8136 | 0.895
drug 500 µM | 0.969 | 1.08 | 0.983 | 1.01 | 0.827 | 0.8286 | 0.901
drug 1000 µM | 0.977 | 1.065 | 1 | 0.974 | 0.835 | 0.0672 | 0.91
drug 2000 µM | 1 | 1.14 | 1.009 | 0.856 | 0.833 | 0.0535 | 0.882

growth, E. coli TESEC Mtb Alr
Details | drug 15.62 µM | drug 31.25 µM
arabinose 12 nM | 0.354 | 0.343
arabinose 24 nM | 0.338 | 0.339
arabinose 48 nM | 0.334 | 0.332
arabinose 95 nM | 0.343 | 0.334
arabinose 191 nM | 0.341 | 0.34
arabinose 381 nM | 0.338 | –
arabinose 763 nM | 0.337 | –
arabinose 1526 nM | 0.333 | –
arabinose 3052 nM | 0.338 | –
arabinose 6104 nM | 0.337 | –
arabinose 12207 nM | 0.353 | –
arabinose 24414 nM | 0.352 | –
arabinose 48828 nM | 0.367 | –
arabinose 97656 nM | 0.451 | –
arabinose 195312 nM | 0.429 | –
arabinose 390625 nM | 0.344 | –
arabinose 781250 nM | 0.311 | –
arabinose 1562500 nM | 0.295 | –
arabinose 3125000 nM | 0.274 | –
arabinose 6250000 nM | 0.267 | –
arabinose 12500000 nM | 0.263 | –
arabinose 25000000 nM | 0.259 | –
arabinose 50000000 nM | 0.246 | –
arabinose 100000000 nM | 0.239 | –
